Measurements reported in patent publication US8906897B2, “Antimicrobial agents based on hemin derivatives” (Obschestvo S Ogranichennoi Otvetstvennostiyu …, priority 2009, dated 2014).
“Also recorded” adds a separate entry of the source.

How the values were obtained:
[1] = test system: Enterococcus faecium No. 569; assay: Specific activity against resistant bacterial strains; assay type: cell-based; details: Ent. faecium 569; 24 h, 36° C.
[2] = test system: Micrococcus luteus BKM Ac-2230; assay: Antibacterial activity (MIC/MBC), serial dilutions in liquid MH medium; assay type: cell-based; details: for MIC: 20 h, MH medium
In short: (§1)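 Exponential-phase cultures were diluted to 5×10^4–1×10^5 cells/mL in Mueller-Hinton broth and exposed to twofold serial dilutions of compound at 37 °C with stirring. Growth was read as OD595, corrected for compound absorbance. MIC is the lowest concentration inhibiting growth, and MBC the lowest killing all cells.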

[3] = test system: Staphylococcus aureus 209P; assay: as above; assay type: cell-based; details: for MIC: 20 h, MH medium
In short: as §1

[4] = test system: Bacillus subtilis BKM B-501; assay: as above; assay type: cell-based; details: for MIC: 20 h, MH medium
In short: as §1

[5] = test system: Enterococcus faecalis BKM B-871; assay: as above; assay type: cell-based; details: for MIC: 20 h, MH medium
In short: as §1

[6] = Solubility of tested agents (water / DMSO); details: water or DMSO
[7] = test system: Cryptococcus neoformans No. 3465; assay: Antifungal activity, culture growth with pH indicator; assay type: cell-based; design: key: (−) No growth; the indicator is blue; (±) Weak growth; the indicator is yellow, but the precipitate of grown cells looks as a diffuse spot; (+) Strong growth; the indicator is yellow, and the cell precipitate looks as a compact spot
Description: The subjects of action were Cryptococcus neoformans No. 3465 museum strain cells and Candida albicans No. 927 museum strain cells grown for one day on a glucose-peptone-yeast medium at 32° C. The reference compounds were the following antimycotics: pimafucin, amphotericin, and fluconazole.
Experiments were carried out on round-bottomed 96-well plates (Lenmedpolimer) in two replicas. To the first column (0), added was 10 μL of the stock solution of a water-soluble agent with concentrations of 10^−2 to 10^−3 mol/L; to the second column, added was also the same 10 μL plus 10 μL of the solvent corresponding to the given compound, suspended, 10 μL was transferred to the next well, and so on to the 8th well of the row. Stock solutions of water-insoluble compounds of general formula (I) (compounds V, VIII, XII, XIII, XIV, and hemin) were prepared in DMSO and were diluted with DMSO and the medium. DMSO concentrations in the reaction mixture in a well were ≦5%.
Then, to every well added was 190 μL of a Cr. neoformans cell culture suspension in a synthetic nutritional medium (so that the final cell concentration was approximately 10^3 CFU/mL), this medium containing Bromocresol Blue as a pH-indicator (pH: 5.5; indicator color: blue). As pH reduced to 4.5, the indicator in the culture changed its color to yellow, thereby indicating fungal cell growth. The synthetic medium comprised the following components: salts, amino acids, microelements, vitamins, an antibiotic, and glucose (30 components altogether) [Yarrow, D., “Methods for the Isolation, Maintenance and Identification of Yeasts,” in: The Yeasts. A Taxonomic Study, Ed. by Kurtsman, C. P, and Fell, M., Elsevier, 1998, pp. 77-100]. After being inoculated with a Cr. neoformans cell suspension, the plate was incubated at 32° C. for 1 h with stirring, then transferred to a stationary thermostat and incubated for two and five days at 27° C. After being inoculated with a C. albicans cell suspension, the plates were incubated for 1 h at 32° C. with stirring, then transferred to a stationary thermostat and incubated for one and four days at 27° C.

[8] = dilution : 16 of 5.00 × 10^−5 M
[9] = dilution : 32 of 5.00 × 10^−5 M
[10] = dilution : 64 of 5.00 × 10^−5 M
[11] = dilution : 128 of 5.00 × 10^−5 M

With `C=CC1=C(C)c2cc3[n-]c(cc4[n-]c(cc5nc(cc1n2)C(C)=C5C=C)c(C)c4CCC(=O)O)c(CCC(=O)O)c3C.[Cl-].[Fe+3]` [Hem, hemin] the “MICs for hemin derivatives against Gr+ strains” value (“MICs for hemin derivatives” below) [1] was over 1e-05 M, the MBC [2] was 25 µM and the MIC [2] was 12.5 µM. It also gave an MBC [3] of 200 µM, an MIC [3] of 100 µM and an MBC [4] of 50 ± 13 µM. For the same molecule, the MIC [4] was 13 ± 4 µM, the MBC [5] was over 1000 µM and the MIC [5] was 1000 µM. For the same molecule, the “solubility (in words)” value [6] was “water-insoluble”, the “Test culture growth at various dilutions of the agent on day 2” value (“Test culture growth at various dilutions” below) ([7]; dilution 0: 5.00 × 10^−5 M) was “±” and the “Test culture growth at various dilutions” value ([7]; dilution : 2 of 5.00 × 10^−5 M) was “±”. The “Test culture growth at various dilutions” value ([7]; dilution : 4 of 5.00 × 10^−5 M) was “±”, the “Test culture growth at various dilutions” value ([7]; dilution : 8 of 5.00 × 10^−5 M) was “±” and the “Test culture growth at various dilutions” value [7, 8] was “±”. The “Test culture growth at various dilutions” value [7, 9] was “±”, the “Test culture growth at various dilutions” value [7, 10] was “+” and the “Test culture growth at various dilutions” value [7, 11] was “+”.
For `C=CC1=C(C)c2cc3[n-]c(cc4nc(cc5[n-]c(cc1n2)c(C)c5CCC(=O)N[C@@H](CCC(=O)N[C@@H](CCCNC(=N)N)C(=O)OC)C(=O)N[C@@H](CCCNC(=N)N)C(=O)OC)C(CCC(=O)N[C@@H](CCC(=O)N[C@@H](CCCNC(=N)N)C(=O)OC)C(=O)N[C@@H](CCCNC(=N)N)C(=O)OC)=C4C)c(C)c3C=C.[Cl-].[Fe+3]` [Compound XVIII, 6,7-bis[bis(N^α-L-Arginyl Methyl Ester)-L-Glutamyl]-Protohemin IX], the “MICs for hemin derivatives” value [1] was 6.25e-06 M, the MBC [2] was 12.5 µM and the MIC [2] was 3.1 µM. The MBC [3] was >50^2 μM, the MBC [4] was “Not reached” and the MBC [5] was >50^3 μM. The MIC [5] was 12.5 µM, the “solubility (in words)” value [6] was “water-soluble” and the “Test culture growth at various dilutions” value ([7]; dilution 0: 5.00 × 10^−5 M) was “−”. For the same molecule, the “Test culture growth at various dilutions” value ([7]; dilution : 2 of 5.00 × 10^−5 M) was “−”, the “Test culture growth at various dilutions” value ([7]; dilution : 4 of 5.00 × 10^−5 M) was “−” and the “Test culture growth at various dilutions” value ([7]; dilution : 8 of 5.00 × 10^−5 M) was “−”. For the same molecule, the “Test culture growth at various dilutions” value [7, 8] was “+”, the “Test culture growth at various dilutions” value [7, 9] was “+” and the “Test culture growth at various dilutions” value [7, 10] was “+”. For the same molecule, the “Test culture growth at various dilutions” value [7, 11] was “+”.
In the case of `C=CC1=C(C)c2cc3[n-]c(cc4nc(cc5[n-]c(cc1n2)c(C)c5CCC(=O)NCCO)C(CCC(=O)NCCO)=C4C)c(C)c3C=C.[Cl-].[Fe+3]` [Compound XIV, Protohemin IX 6,7-bis-N-(2-Hydroxyethyl)amide], the “MICs for hemin derivatives” value [1] is reported as over 5e-05 M, the MBC [2] is reported as 1.6 µM and the MIC [2] is reported as 0.8 µM. The MBC [3] was 3.2 µM, the MIC [3] was 1.6 µM and the MBC [4] was 6.3 ± 1.6 µM. For the same molecule, the MIC [4] was 1.6 ± 0.4 µM, the MBC [5] was 100 µM and the MIC [5] was 25 µM. For the same molecule, the “solubility (in words)” value [6] was “DMSO-soluble; also recorded: water-insoluble”.
In the case of `C=CC1=C(C)c2cc3[n-]c(cc4nc(cc5[n-]c(cc1n2)c(C)c5CCC(=O)N[C@@H](CCCNC(=N)N)C(=O)OC)C(CCC(=O)N[C@@H](CCCNC(=N)N)C(=O)OC)=C4C)c(C)c3C=C.[Cl-].[Fe+3]` [VII], the “MICs for hemin derivatives” value [1] is reported as over 5e-05 M, the MBC [2] is reported as 6.3 µM and the MBC [3] is reported as 200 µM. It also gave an MBC [4] of 3.1 ± 0.8 µM, an MBC [5] of 400 µM and an MIC [5] of 50 µM. For the same molecule, the “solubility (in words)” value [6] was “water-soluble”, the “Test culture growth at various dilutions” value ([7]; dilution 0: 5.00 × 10^−5 M) was “−” and the “Test culture growth at various dilutions” value ([7]; dilution : 2 of 5.00 × 10^−5 M) was “±”. For the same molecule, the “Test culture growth at various dilutions” value ([7]; dilution : 4 of 5.00 × 10^−5 M) was “+”, the “Test culture growth at various dilutions” value ([7]; dilution : 8 of 5.00 × 10^−5 M) was “+” and the “Test culture growth at various dilutions” value [7, 8] was “+”. For the same molecule, the “Test culture growth at various dilutions” value [7, 9] was “+”, the “Test culture growth at various dilutions” value [7, 10] was “+” and the “Test culture growth at various dilutions” value [7, 11] was “+”.
In the case of `C=CC1=C(C)c2cc3[n-]c(cc4nc(cc5[n-]c(cc1n2)c(C)c5CCC(=O)N[C@@H](CO)C(=O)OC)C(CCC(=O)N[C@@H](CO)C(=O)OC)=C4C)c(C)c3C=C.[Cl-].[Fe+3]` [VIII], the “MICs for hemin derivatives” value [1] is reported as >5.0. ×10^−5 M, the MBC [2] is reported as 12.5 µM and the MBC [3] is reported as 200 µM. It also gave an MBC [4] of 9 ± 4 µM, an MIC [4] of 6.3 ± 1.6 µM and an MBC [5] of 25 µM. For the same molecule, the MIC [5] was 12.5 µM, the “solubility (in words)” value [6] was “DMSO-soluble; also recorded: water-insoluble” and the “Test culture growth at various dilutions” value ([7]; dilution 0: 5.00 × 10^−5 M) was “±”. The “Test culture growth at various dilutions” value ([7]; dilution : 2 of 5.00 × 10^−5 M) was “±”, the “Test culture growth at various dilutions” value ([7]; dilution : 4 of 5.00 × 10^−5 M) was “±” and the “Test culture growth at various dilutions” value ([7]; dilution : 8 of 5.00 × 10^−5 M) was “+”. The “Test culture growth at various dilutions” value [7, 8] was “+”, the “Test culture growth at various dilutions” value [7, 9] was “+” and the “Test culture growth at various dilutions” value [7, 10] was “+”. For the same molecule, the “Test culture growth at various dilutions” value [7, 11] was “+”.
